We go through 6 molecules from patent publication US9555021B2, “Pharmaceutical compositions comprising (3-(1-(1H-imidazol-4-yl)ethyl)-2-methylphenyl)methanol” (Allergan, Inc., priority 2009, dated 2017).

The conditions of data set [1]: FIG. 3 / FIG. 4.
Description: The tactile hypersensitivity of 5-6 mice (weighing approx. 25 g) per group was scored every five minutes between 15 and 50 minutes following intraperitoneal dosing with 300 ng/kg (in a 1 mL/kg volume) sulprostone (Cayman Chemical Company, Ann Arbor, Mich.). Compound I or vehicle was administered intraperitoneally 15 minutes prior to sulprostone.
(§3) Tactile hypersensitivity was quantified by scoring the response of mice to light stroking of their flanks with a small paintbrush, which is not normally painful.
The computer analyses this movement and records total activity. Locomotor activity relative to vehicle-treated animals was expressed as a percentage; percentage sedation was calculated as 100% minus the percent locomotor activity. Statistical calculations of significance for in vivo studies were done using a two-tailed Student's t-test.
The target in data set [2] is T1, alpha-1A adrenergic receptor (Homo sapiens, UniProt P35348).
T1 sequence (P35348 1-466): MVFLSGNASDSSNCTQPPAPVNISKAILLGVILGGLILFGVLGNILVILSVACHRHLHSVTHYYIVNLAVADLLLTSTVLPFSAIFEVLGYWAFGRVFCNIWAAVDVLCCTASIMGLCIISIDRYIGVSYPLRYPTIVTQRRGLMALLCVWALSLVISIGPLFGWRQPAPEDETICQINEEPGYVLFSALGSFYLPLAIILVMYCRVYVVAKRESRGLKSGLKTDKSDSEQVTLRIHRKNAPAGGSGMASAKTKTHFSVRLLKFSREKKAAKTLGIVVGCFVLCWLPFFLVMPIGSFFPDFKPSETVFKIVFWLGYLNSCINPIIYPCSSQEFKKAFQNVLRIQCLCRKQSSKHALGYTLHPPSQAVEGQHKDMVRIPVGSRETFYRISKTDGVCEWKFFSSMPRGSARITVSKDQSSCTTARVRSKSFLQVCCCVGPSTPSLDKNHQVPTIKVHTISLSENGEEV
As to the kind of experiment: FLIPR assay (intracellular calcium), alpha-1A adrenergic receptor. The data set is classed as cell-based. The note with it: for alpha-1A activity in words (agonist/antagonist): Table 2; for α-1A relative efficacy as compared to norepinephrine: agonism; for EC50: first line of cell, HEK 293 cells, unit inferred, compounds tested at 0.64 nM-10,000 nM, read-out: α-1A agonism EC50. The protocol:
(§1) Compounds of the invention were evaluated in a FLIPR assay in order to determine their specificity for five alpha adrenergic receptors. The FLIPR assay measures release of intracellular calcium in response to receptor activation. Cells are preloaded with a calcium sensitive dye that fluoresces in response to calcium. Receptors that activate the G protein, Gq, elicit the response. Alpha adrenergic receptors, which normally couple to Gi, trigger the increase in intracellular calcium when coexpressed with a hybrid Gq protein containing a Gi receptor recognition domain, designated Gq/i5 (Conklin et al., Nature 363:274-6 (1993)) or with the promiscuous G protein Ga16.
(§2) The assay was performed essentially as follows. HEK 293 cells stably expressing an alpha-2 receptor and either the chimeric G-protein Gqi5 or the promiscuous G protein G16 were plated in poly-D-lysine coated 384-well plates at 20,000-25,000 cells per well and grown overnight in DMEM supplemented with 10% FBS. Cells were washed twice with HBSS/HEPES Buffer (1× Hanks Buffered Salt Solution, 20 mM HEPES, pH 7.4) prior to the addition of Fluo-4-AM (4 μM Fluo-4-AM, 0.04% pluronic acid in HBSS/HEPES Buffer), a calcium-sensitive dye. Cells were loaded with dye for 60 minutes at 37° C., then washed 4 times with HBSS/HEPES Buffer. The reaction was initiated by the addition of the appropriate dilutions of compounds (final concentration between 0.64 nM-10,000 nM) and the transient calcium signal captured. The peak height of the calcium curve was determined and utilized for calculation of EC50 and efficacy using ActivityBase.

For data set [3], the system named is mice. The experiment in a line: Locomotor activity (sedation). The class given is in vivo. The note with it: 30 minutes after dosing.
Data set [4] deals with T2, alpha-2B adrenergic receptor (Homo sapiens, UniProt P18089).
T2 construct: expressed in transfected cells
T2 sequence (P18089 1-450): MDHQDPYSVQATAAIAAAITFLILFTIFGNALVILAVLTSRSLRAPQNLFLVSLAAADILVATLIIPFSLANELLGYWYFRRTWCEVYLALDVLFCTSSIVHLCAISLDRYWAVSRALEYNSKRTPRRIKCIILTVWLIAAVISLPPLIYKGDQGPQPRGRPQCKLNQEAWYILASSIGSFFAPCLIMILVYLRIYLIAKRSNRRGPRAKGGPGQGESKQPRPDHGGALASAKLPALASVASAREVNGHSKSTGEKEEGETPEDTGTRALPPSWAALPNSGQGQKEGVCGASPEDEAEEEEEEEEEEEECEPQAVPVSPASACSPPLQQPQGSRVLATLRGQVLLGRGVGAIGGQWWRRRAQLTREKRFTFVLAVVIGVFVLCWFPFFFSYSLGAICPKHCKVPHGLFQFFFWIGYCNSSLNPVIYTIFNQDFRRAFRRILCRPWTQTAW
The experiment in a line: FLIPR assay (intracellular calcium), alpha-2B adrenergic receptor. The class given is cell-based. As to conditions: for alpha-2B activity in words (agonist/antagonist): Table 2; for α-2B relative efficacy as compared to norepinephrine: agonism, value in parenthesis; for EC50: first line of cell, unit inferred, compounds tested at 0.64 nM-10,000 nM, read-out: α-2B agonism EC50. On the procedure:
as §1, §2
A general note: A change in cytosolic calcium serves as a functional read-out for many receptors and channels.

Data set [5] addresses T3, alpha-1B adrenergic receptor (Homo sapiens, UniProt P35368).
T3 sequence (P35368 1-520): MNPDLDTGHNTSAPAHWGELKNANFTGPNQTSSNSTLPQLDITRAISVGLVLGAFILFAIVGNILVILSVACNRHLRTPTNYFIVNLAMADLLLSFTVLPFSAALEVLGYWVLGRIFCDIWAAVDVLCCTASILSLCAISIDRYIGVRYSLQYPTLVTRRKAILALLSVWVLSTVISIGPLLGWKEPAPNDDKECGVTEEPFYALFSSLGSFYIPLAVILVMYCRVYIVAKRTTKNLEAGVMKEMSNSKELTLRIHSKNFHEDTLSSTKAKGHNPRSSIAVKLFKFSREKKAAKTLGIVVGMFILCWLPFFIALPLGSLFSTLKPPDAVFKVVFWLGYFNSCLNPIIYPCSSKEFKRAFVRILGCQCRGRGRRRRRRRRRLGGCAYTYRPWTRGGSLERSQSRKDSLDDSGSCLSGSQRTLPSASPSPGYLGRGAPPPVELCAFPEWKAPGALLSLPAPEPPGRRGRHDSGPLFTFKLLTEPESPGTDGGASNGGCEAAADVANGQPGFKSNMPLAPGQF
As to the kind of experiment: FLIPR assay (intracellular calcium), alpha-1B adrenergic receptor. The class given is cell-based. The note with it: unit inferred; for EC50: first line of cell, compounds tested at 0.64 nM-10,000 nM, read-out: α-1B agonism EC50; for IC50: second line of cell, read-out: α-1B antagonism IC50. The protocol: as §1, §2

Data set [6] has as its target T4, alpha-2A adrenergic receptor (Homo sapiens, UniProt P08913).
T4 construct: expressed in transfected cells
T4 sequence (P08913 1-465): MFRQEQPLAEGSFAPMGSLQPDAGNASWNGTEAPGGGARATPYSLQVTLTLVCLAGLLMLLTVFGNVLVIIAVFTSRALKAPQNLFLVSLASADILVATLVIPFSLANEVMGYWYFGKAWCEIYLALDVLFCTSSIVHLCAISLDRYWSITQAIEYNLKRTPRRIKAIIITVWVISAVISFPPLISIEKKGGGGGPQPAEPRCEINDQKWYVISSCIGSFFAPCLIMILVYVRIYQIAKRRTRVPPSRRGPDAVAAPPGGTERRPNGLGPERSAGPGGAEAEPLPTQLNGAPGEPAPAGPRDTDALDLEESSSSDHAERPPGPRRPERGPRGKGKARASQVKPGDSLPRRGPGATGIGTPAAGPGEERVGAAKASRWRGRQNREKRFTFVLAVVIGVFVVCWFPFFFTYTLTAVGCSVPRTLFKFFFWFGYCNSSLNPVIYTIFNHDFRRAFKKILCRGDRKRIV
The experiment in a line: FLIPR assay (intracellular calcium), alpha-2A adrenergic receptor. As to conditions: for alpha-2A activity in words (agonist/antagonist): Table 2; for α-2A relative efficacy as compared to norepinephrine: agonism; for EC50: first line of cell, compounds tested at 0.64 nM-10,000 nM, read-out: α-2A agonism EC50. The class given is cell-based. On the procedure: as §1, §2

Data set [7] addresses T5, alpha-2C adrenergic receptor (Homo sapiens, UniProt P18825).
T5 construct: expressed in transfected cells
T5 sequence (P18825 1-462): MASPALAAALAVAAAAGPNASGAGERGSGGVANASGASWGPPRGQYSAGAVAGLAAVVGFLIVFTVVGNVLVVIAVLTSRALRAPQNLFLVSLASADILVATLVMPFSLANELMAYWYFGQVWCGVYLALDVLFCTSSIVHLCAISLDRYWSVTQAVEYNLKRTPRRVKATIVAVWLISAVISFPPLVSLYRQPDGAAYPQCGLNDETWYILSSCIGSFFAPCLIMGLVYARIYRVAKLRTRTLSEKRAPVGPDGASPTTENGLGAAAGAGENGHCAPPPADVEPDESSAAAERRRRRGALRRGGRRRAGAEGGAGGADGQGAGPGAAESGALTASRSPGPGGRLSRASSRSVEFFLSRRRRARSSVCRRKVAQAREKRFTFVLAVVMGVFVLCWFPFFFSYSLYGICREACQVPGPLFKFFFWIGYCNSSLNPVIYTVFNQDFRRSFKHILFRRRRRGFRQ
The experiment in a line: FLIPR assay (intracellular calcium), alpha-2C adrenergic receptor. The class given is cell-based. The note with it: for alpha-2C activity in words (agonist/antagonist): Table 2; for α-2C relative efficacy as compared to norepinephrine: agonism, value in parenthesis; for EC50: first line of cell, unit inferred, compounds tested at 0.64 nM-10,000 nM, read-out: α-2C agonism EC50. On the procedure:
as §1, §2

The subject of data set [8] is mice. The experiment in a line: Sulprostone-induced tactile hypersensitivity. The class given is in vivo. The note with it: 0.3 mg/kg intraperitoneally 15 minutes prior to sulprostone.
Description: The tactile hypersensitivity of 5-6 mice (weighing approx. 25 g) per group was scored every five minutes between 15 and 50 minutes following intraperitoneal dosing with 300 ng/kg (in a 1 mL/kg volume) sulprostone (Cayman Chemical Company, Ann Arbor, Mich.).
as §3
For data set [9], the system named is mice. As to conditions: as described in Gil et al., Br J Pharmacol 153: 769-74 (2008); cited from earlier work.
Where [10] appears, read: second line of cell, value in parenthesis.

The structures appear in SMILES notation.

Consider `Cc1c(CO)cccc1C(C)c1c[nH]cn1` (racemic) [Compound I, (3-(1-(1H-imidazol-4-yl)ethyl)-2-methylphenyl)methanol], for which the “margin of safety for pain reduction vs. sedation” value in data set [1] is recorded as more than 10 fold. Moreover, in data set [2], the “alpha-1A activity in words (agonist/antagonist)” value is “some alpha-1A agonist activity” and the EC50 (commonly the midpoint of the concentration-response curve) is 1.63 µM. The “α-1A relative efficacy as compared to norepinephrine” value in data set [2] (value in parenthesis) is recorded as “(.69)”. Moreover, the “sedation (locomotor activity)” value with mice [3] (1 mg/kg intraperitoneal) was “minimally sedating”. Also, in the data set on mice [3] (3 mg/kg intraperitoneal), the “sedation (locomotor activity)” value is reported as “highly sedating”. In [4], the “alpha-2B activity in words (agonist/antagonist)” value was “alpha-2 pan agonist”, the “α-2B relative efficacy as compared to norepinephrine” value (from here on “α-2B relative efficacy”) is listed as “(.94)” and the EC50 turned out to be 0.0055 µM. For the same molecule, in data set [5], the EC50 is more than 10 µM and the IC50 – broadly, the point on the concentration scale where inhibition reaches its midpoint – was more than 8.3 µM. The “alpha-2A activity in words (agonist/antagonist)” value in data set [6] is given as “alpha-2 pan agonist”. For the same molecule, the “α-2A relative efficacy as compared to norepinephrine” value in [6] (value in parenthesis) is recorded as “(.75)”. Further, in data set [6] (unit inferred), the concentration for a half-maximal effect (EC50) was 0.0537 µM. Moreover, in data set [7], the “alpha-2C activity in words (agonist/antagonist)” value was “alpha-2 pan agonist”, the “α-2C relative efficacy as compared to norepinephrine” value (shortened to “α-2C relative efficacy”) is reported as “(.98)” and the EC50 amounted to 0.0157 µM. Also, the “reduction in sulprostone induced hypersensitivity” value in the data set on mice [8] is listed as “back to control levels”.
As for `Cc1c(CO)cccc1[C@@H](C)c1c[nH]cn1` [Compound II, (R)-(3-(1-(1H-imidazol-4-yl)ethyl)-2-methylphenyl)methanol], in data set [2], the EC50 is more than 10 µM. In addition, the α-1A percent antagonism result in [2] (setting [10]) was “(39%)”. Moreover, in data set [4], the “alpha-2B activity in words (agonist/antagonist)” value is “agonist”, the “α-2B relative efficacy” value was “(.68)” and the EC50 was 0.0528 µM. In addition, in data set [5], the EC50 is more than 10 µM and the IC50 is more than 8.3 µM. In data set [6], the “alpha-2A activity in words (agonist/antagonist)” value was “antagonist”. In addition, in data set [6] (unit inferred), the EC50 is more than 10 µM. In addition, in data set [6] (setting [10]), the α-2A percent antagonism result is given as “(96%)”. Also, the IC50 in [6] (second line of cell, unit inferred, read-out: α-2A antagonism IC50) stood at 0.144 µM. In [7], the “alpha-2C activity in words (agonist/antagonist)” value is “agonist”, the “α-2C relative efficacy” value is listed as “(.64)” and the EC50 turned out to be 0.171 µM.
For `Cc1c(CO)cccc1[C@H](C)c1c[nH]cn1` [Compound III, (S)-(3-(1-(1H-imidazol-4-yl)ethyl)-2-methylphenyl)methanol], in data set [2], the “alpha-1A activity in words (agonist/antagonist)” value is reported as “some alpha-1A agonist activity” and the EC50 was determined as 0.445 µM. Further, the “α-1A relative efficacy as compared to norepinephrine” value in data set [2] (value in parenthesis) is on record as “(.76)”. Further, in data set [4], the “alpha-2B activity in words (agonist/antagonist)” value is recorded as “alpha-2 pan agonist”, the “α-2B relative efficacy” value is on record as “(.93)” and the EC50 came out at 0.003 µM. Besides, the EC50 in data set [5] is more than 8.3 µM. Moreover, the “alpha-2A activity in words (agonist/antagonist)” value in data set [6] is listed as “alpha-2 pan agonist”. In addition, in data set [6] (value in parenthesis), the “α-2A relative efficacy as compared to norepinephrine” value was “(.9)”. For the same molecule, the EC50 in data set [6] (unit inferred) worked out at 0.072 µM. In data set [7], the “alpha-2C activity in words (agonist/antagonist)” value is on record as “alpha-2 pan agonist”, the “α-2C relative efficacy” value is given as “(1)” and the EC50 was determined as 0.008 µM.
For the molecule `CN(C)CCC=C1c2ccccc2CCc2ccccc21` [amitriptyline], in the data set with mice [9], the “activity in sulprostone-induced tactile hypersensitivity model” value is given as “active”.
Turning to `Cc1cccc([C@H](C)c2cnc[nH]2)c1C` [dexmedetomidine], the “margin of safety for pain reduction vs. sedation” value in data set [1] is reported as “no margin of safety”.
On to `NCC1(CC(=O)O)CCCCC1` [gabapentin], for which the “activity in sulprostone-induced tactile hypersensitivity model” value in the data set with mice [9] was “active”.
